Laboratory results: US6608082B1, “Treatment of erectile dysfunction using isoquinoline compound melanocortin receptor ligands” (Lion Bioscience AG, priority 1998, dated 2003)
pIC50: −log10 of the molar value. Like-named read-outs stand apart in the source and are kept apart here.

Molecular target: T1, MCR-1 (Homo sapiens, UniProt Q01726)
T1 construct: expressed in transfected cells; host or cells: HEK 293
Test: Melanocortin receptor binding assay, competition with 125I-HP 467, HEK 293 cells expressing hMCR-1
Details: for % Disp. MC-1 10 μM: displacement of 125I-HP 467 at 10 μM isoquinoline compound; for pIC50: read-out: MC-1 IC50; for % Disp. of 125I-HP 467 (first of duplicate) / % Disp. of 125I-HP 467 (second of duplicate): 10 μM isoquinoline compound; for % Disp. of 125I-HP 467 (first of duplicate): HEK 293 cells expressing MCR-1, duplicate 1; for % Disp. of 125I-HP 467 (second of duplicate): HEK 293 cells expressing MCR-1, duplicate 2
Method: All cell culture media and reagents were obtained from GibcoBRL (Gaithersburg Md.), except for COSMIC CALF SERUM (HyClone; Logan Utah).
Cells were suspended in PBS, 10% COSMIC CALF SERUM and 1 mM CaCl2. Cell suspensions were prepared at a density of 2×10^4 cells/ml for HEK 293 cells expressing hMCR-3, hMCR-4 or hMCR-5, and 1×10^5 cells/ml for HEK 293 cells expressing hMCR-1. Suspensions were placed in a water bath and allowed to warm to 37° C. for 1 hr.
Binding assays were performed in a total volume of 250 μl for HEK 293 cells. […] To each tube was added 4×10^3 HEK 293 cells expressing hMCR-3, hMCR-4 or hMCR-5, or 2×10^4 cells expressing hMCR-1. Assays were incubated for 2.5 hr at 37° C.
GF/B filter plates were prepared by soaking for at least one hour in 5 mg/ml BSA and 10 mM CaCl2. Assays were filtered using a Brandel 96-well cell harvester (Brandel Inc.; Gaithersburg, Md.). The filters were washed four times with cold 50 mM Tris, pH 7.4, the filter plates were dehydrated for 2 hr and 35 μl of MICROSCINT was added to each well. Filter plates were counted using a Packard Topcount (Packard Instrument Co.) and data analyzed using GraphPad PRISM v2.0 (GraphPad Software Inc.; San Diego Calif.) and Microsoft EXCEL v5.0a (Microsoft Corp.; Redmond Wash.).
To assay isoquinoline compounds, binding assays were performed in duplicate in a 96 well format. […] A 0.2 ml aliquot of suspended cells was added to each well to give the cell numbers indicate above, and the cells were incubated at 37° C. for 2.5 hr. Cells were harvested on GF/B filter plates as described above and counted.

[1] = inhibition of binding of 125I-HP 467, HEK 293 cells expressing MCR-1
[2] = competition with 125I-HP 467, HEK 293 cells expressing MCR-1

T1 sequence (Q01726 whole entry): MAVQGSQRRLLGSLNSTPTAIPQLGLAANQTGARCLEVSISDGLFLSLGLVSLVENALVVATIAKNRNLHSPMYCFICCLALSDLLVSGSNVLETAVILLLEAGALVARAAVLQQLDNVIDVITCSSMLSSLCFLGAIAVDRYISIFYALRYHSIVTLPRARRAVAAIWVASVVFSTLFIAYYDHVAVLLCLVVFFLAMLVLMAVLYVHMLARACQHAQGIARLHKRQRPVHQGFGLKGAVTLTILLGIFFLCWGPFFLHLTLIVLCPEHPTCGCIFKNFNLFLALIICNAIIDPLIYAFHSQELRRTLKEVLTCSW

Row | % Disp. MC-1 10 μM (first of duplicate) [%] | % Disp. MC-1 10 μM (second of duplicate) [%] | pIC50 [2] | Compound | other results
1 | 30.6 | 23.1 | – | NCCN1Cc2ccccc2C(CNC2CCCCC2)C1c1cccnc1 (stereo not drawn) [TRG 2405-51] | –
2 | – | – | – | NCC(CCCCN1Cc2ccccc2C(CNCCc2ccc(Oc3ccccc3)cc2)C1c1cc(C(F)(F)F)cc(C(F)(F)F)c1)NCc1ccc(-c2ccccc2)cc1 (stereo not drawn) [TRG 2421-30] | pIC50 [1]: 4.44
3 | – | – | – | CCNc1ccc(C2C(CN)c3ccccc3CN2CCCC(CN)NCCc2ccc(OC)cc2)cc1 (stereo not drawn) [TRG 2411-181] | pIC50 [1]: 6.96
4 | 41.2 | 49.7 | – | CNC(CN)CN1Cc2ccccc2C(CNC2CCCCC2)C1c1ccc(N(C)C)cc1 (stereo not drawn) [TRG 2405-145] | –
5 | – | – | – | CNC(CN)CCCCN1Cc2ccccc2C(CNC2CCCCC2)C1c1cc(C(F)(F)F)cc(C(F)(F)F)c1 (stereo not drawn) [TRG 2405-208] | % Disp. of 125I-HP 467 (first of duplicate): 79.5%; % Disp. of 125I-HP 467 (second of duplicate): 67.5%
6 | – | – | 6.23 | NCC(N)CCCCN1Cc2ccccc2C(CN)C1c1ccc(-c2ccccc2)cc1 (stereo not drawn) [TRG 2411-23] | –
7 | – | – | – | CCCCNc1ccc(C2C(CNC3CCCCC3)c3ccccc3CN2CCCC(CN)NCc2ccc(Cl)cc2)cc1 (stereo not drawn) [TRG 2411-211] | pIC50 [1]: 7.00
8 | – | – | – | CNC(CN)CCCCN1Cc2ccccc2C(CNC2CCCCC2)C1c1ccc([N+](=O)[O-])cc1 (stereo not drawn) [TRG 2405-251] | % Disp. of 125I-HP 467 (first of duplicate): 49.4%; % Disp. of 125I-HP 467 (second of duplicate): 46.9%
9 | – | – | 6.52 | CCCCNc1ccc(C2C(CNC3CCCCC3)c3ccccc3CN2CCCCC(CN)NCCc2ccc(OC)cc2)cc1 (stereo not drawn) [TRG 2411-92] | –
10 | 0 | 43.1 | – | Cc1cccc(C2C(CNC3CCCCC3)c3ccccc3CN2CCN)n1 (stereo not drawn) [TRG 2405-81] | –
11 | 23.2 | 16.9 | – | NCCN1Cc2ccccc2C(CNC2CCCCC2)C1c1cccc(CN)c1 (stereo not drawn) [TRG 2405-39] | –
12 | – | – | 6.89 | CCNc1ccc(C2C(CNCCc3ccccc3)c3ccccc3CN2CCCCC(CN)NCC)cc1 (stereo not drawn) [TRG 2411-37] | –
13 | – | – | 6.92 | CCNc1ccc(C2C(CN)c3ccccc3CN2CCCCC(CN)NCc2ccc(OC)cc2)cc1 (stereo not drawn) [TRG 2411-68] | –
14 | – | – | 6.64 | NCC(CCCN1Cc2ccccc2C(CNC2CCCCC2)C1c1ccc(-c2ccccc2)cc1)N1CCCC1 (stereo not drawn) [TRG 2411-131] | –
15 | – | – | – | CCn1c2ccccc2c2cc(C3C(CNC4CCCCC4)c4ccccc4CN3CC(CN)NC)ccc21 (stereo not drawn) [TRG 2405-173] | % Disp. of 125I-HP 467 (first of duplicate): 67%; % Disp. of 125I-HP 467 (second of duplicate): 59.3%
16 | – | – | 6.26 | COCCNC(CN)CCCCN1Cc2ccccc2C(CN)C1c1ccc(-c2ccccc2)cc1 (stereo not drawn) [TRG 2411-32] | –
17 | – | – | – | CCNc1ccc(C2C(CN)c3ccccc3CN2CCCC(CN)NCCc2ccccc2)cc1 (stereo not drawn) [TRG 2413-11] | pIC50 [1]: 6.89
18 | – | – | 6.05 | NCC(CCCCN1Cc2ccccc2C(CNC2CCCCC2)C1c1ccc(-c2ccccc2)cc1)NCCO (stereo not drawn) [TRG 2411-16] | –
19 | 38.9 | 17.6 | – | NCCN1Cc2ccccc2C(CNC2CCCCC2)C1c1ccnc2ccccc12 (stereo not drawn) [TRG 2405-75] | –
20 | 23.5 | 52.5 | – | NCCN1Cc2ccccc2C(CNC2CCCCC2)C1c1ccccc1CN (stereo not drawn) [TRG 2405-15] | –
21 | – | – | – | CNC(CN)CCCCN1Cc2ccccc2C(CNC2CCCCC2)C1c1cccs1 (stereo not drawn) [TRG 2405-203] | % Disp. of 125I-HP 467 (first of duplicate): 58.1%; % Disp. of 125I-HP 467 (second of duplicate): 49%
22 | – | – | 5.83 | CCNC(CN)CCCN1Cc2ccccc2C(CNC2CCCCC2)C1c1ccc(-c2ccccc2)cc1 (stereo not drawn) [TRG 2411-127] | –
23 | – | – | 5.90 | CCNC(CN)CCCN1Cc2ccccc2C(CN)C1c1ccc(-c2ccccc2)cc1 (stereo not drawn) [TRG 2411-138] | –
24 | 37.2 | 42.4 | – | NCCN1Cc2ccccc2C(CNC2CCCCC2)C1c1cccc([N+](=O)[O-])c1 (stereo not drawn) [TRG 2405-49] | –
25 | 47.7 | 42.5 | – | NCCN1Cc2ccccc2C(CNC2CCCCC2)C1c1ccccn1 (stereo not drawn) [TRG 2405-21] | –
26 | 42.2 | 36.2 | – | COc1ccccc1C1C(CNC2CCCCC2)c2ccccc2CN1CCN (stereo not drawn) [TRG 2405-19] | –
27 | – | – | – | NCC(CCCCN1Cc2ccccc2C(CNCCc2ccc(Oc3ccccc3)cc2)C1c1cc(C(F)(F)F)cc(C(F)(F)F)c1)NCc1ccc(Br)cc1 (stereo not drawn) [TRG 2421-28] | pIC50 [1]: 4.80
28 | – | – | – | CNC(CN)CCCCN1Cc2ccccc2C(CNC2CCCCC2)C1c1ccc(S(C)(=O)=O)cc1 (mixture of isomers) [TRG 2405-267] | % Disp. of 125I-HP 467 (first of duplicate): 21.5%; % Disp. of 125I-HP 467 (second of duplicate): 8.4%
